Where a name gives a salt, the structure may show the parent alone.
Target: SARS-CoV-2 Mac1 (Severe acute respiratory syndrome coronavirus 2, UniProt P0DTD1)
Test: biochemical
Conditions: 100 µM; inhibitor

Compound	%inhibition
CC1=C(C(=O)O)N2C(=O)[C@@H](NC(=O)[C@H](N)C3=CCC=CC3)[C@H]2SC1 [Cefradine]	0.656%
CO/N=C(\C(=O)N[C@@H]1C(=O)N2C(C(=O)O)=C(CSC(=O)c3ccco3)CS[C@H]12)c1csc(N)n1 [Ceftiofur HCl]	20.8%
CO/N=C(\C(=O)N[C@@H]1C(=O)N2C(C(=O)O)=C(CSC(=O)c3ccco3)CS[C@H]12)c1csc(N)n1 [Ceftiofur]	0%
CO/N=C(\C(=O)N[C@@H]1C(=O)N2C(C(=O)O)=C(CSc3nc(=O)c(O)nn3C)CS[C@H]12)c1csc(N)n1 [Ceftriaxone Sodium Trihydrate]	0.1034%
CO/N=C(\C(=O)N[C@@H]1C(=O)N2C(C(=O)O)=C(CSc3nc(=O)c(O)nn3C)CS[C@H]12)c1csc(N)n1 [Ceftriaxone Sodium]	17.28%
CC1=C(C(=O)O)N2C(=O)[C@@H](NC(=O)[C@H](N)C3=CCC=CC3)[C@H]2SC1 [Cephradine monohydrate]	0%
NC(=NCCCCCCN=C(N)/N=C(\N)Nc1ccc(Cl)cc1)/N=C(\N)Nc1ccc(Cl)cc1 [Chlorhexidine?2HCl]	7.76%
CCN(CC)CCCC(C)Nc1ccnc2cc(Cl)ccc12 (stereo not drawn) [Chloroquine Phosphate]	4.168%
CN(C)CC/C=C1/c2ccccc2Sc2ccc(Cl)cc21 [Chlorprothixene hydrochloride]	0%
CN(C)CC/C=C1/c2ccccc2Sc2ccc(Cl)cc21 [Chlorprothixene]	13.67%
Cc1cc(C2CCCCC2)n(O)c(=O)c1 [Ciclopirox ethanolamine]	12.57%
COc1ccc(C[C@@H]2c3cc(OC)c(OC)cc3CC[N@+]2(C)CCC(=O)OCCCCCOC(=O)CC[N@@+]2(C)CCc3cc(OC)c(OC)cc3[C@H]2Cc2ccc(OC)c(OC)c2)cc1OC [Cisatracurium Besylate]	1.897%

Same assay, conditions: read-out: %inhibition

Compound	inhibition at 100 µM
CC(OC(=O)OC1CCCCC1)OC(=O)C1=C(CSc2nnnn2CCN(C)C)CS[C@@H]2[C@H](NC(=O)Cc3csc(N)n3)C(=O)N12 (stereo partly drawn) [Cefotiam Hexetil Hydrochloride]	0%
CN(C)CCn1nnnc1SCC1=C(C(=O)O)N2C(=O)[C@@H](NC(=O)Cc3csc(N)n3)[C@H]2SC1 [Cefotiam hydrochloride]	23.3%
CO[C@@]1(NC(=O)Cc2cccs2)C(=O)N2C(C(=O)O)=C(COC(N)=O)CS[C@@H]21 [Cefoxitin sodium]	0%
CO/N=C(\C(=O)N[C@@H]1C(=O)N2C(C(=O)[O-])=C(C[n+]3ccn4ncccc43)CS[C@H]12)c1nsc(N)n1 [Cefozopran hydrochloride]	8.9%
Cc1cc(O)c(C(=O)N[C@@H](C(=O)N[C@@H]2C(=O)N3C(C(=O)O)=C(CSc4nnnn4C)CS[C@H]23)c2ccc(O)cc2)cn1 [Cefpiramide sodium]	0%
CO/N=C(\C(=O)N[C@@H]1C(=O)N2C(C(=O)[O-])=C(C[n+]3cccc4c3CCC4)CS[C@H]12)c1csc(N)n1 [Cefpirome sulfate]	0%
COCC1=C(C(=O)OC(C)OC(=O)OC(C)C)N2C(=O)[C@@H](NC(=O)/C(=N\OC)c3csc(N)n3)[C@H]2SC1 (stereo partly drawn) [Cefpodoxime proxetil]	13.2%
CC(C)(O/N=C(\C(=O)N[C@@H]1C(=O)N2C(C(=O)[O-])=C(C[n+]3ccccc3)CS[C@H]12)c1csc(N)n1)C(=O)O [Ceftazidime Pentahydrate]	0%
Nc1nc(/C(=C/CC(=O)O)C(=O)N[C@@H]2C(=O)N3C(C(=O)O)=CCS[C@H]23)cs1 [Ceftibuten dihydrate]	10.7%
CO/N=C(\C(=O)N[C@@H]1C(=O)N2C(C(=O)O)=CCS[C@H]12)c1csc(N)n1 [Ceftizoxime]	12.3%
CO/N=C(\C(=O)N[C@@H]1C(=O)N2C(C(=O)OC(C)OC(C)=O)=C(COC(N)=O)CS[C@H]12)c1ccco1 (stereo partly drawn) [Cefuroxime axetil]	0%
CO/N=C(\C(=O)N[C@@H]1C(=O)N2C(C(=O)O)=C(COC(N)=O)CS[C@H]12)c1ccco1 [Cefuroxime sodium]	0%
Cc1ccc(-c2cc(C(F)(F)F)nn2-c2ccc(S(N)(=O)=O)cc2)cc1 [Celecoxib]	10.4%
CC1=C(C(=O)O)N2C(=O)[C@@H](NC(=O)[C@H](N)c3ccccc3)[C@H]2SC1 [Cephalexin]	0%
CC(=O)OCC1=C(C(=O)O)N2C(=O)[C@@H](NC(=O)Cc3cccs3)[C@H]2SC1 [Cephalothin]	8.54%
CC(=O)OCC1=C(C(=O)O)N2C(=O)[C@@H](NC(=O)CSc3ccncc3)[C@H]2SC1 [Cephapirin Sodium]	0%
COc1ccc2cc1Oc1ccc(cc1)C[C@H]1c3c(cc4c(c3Oc3cc5c(cc3OC)CCN(C)[C@@H]5C2)OCO4)CCN1C [Cepharanthine]	18.2%
CCS(=O)(=O)N1CCN(c2ccc(Nc3ncc(C(N)=O)c(NC4CC4)n3)cc2)CC1 [Cerdulatinib (PRT062070, PRT2070)]	15.9%
Cc1cc(Nc2ncc(Cl)c(Nc3ccccc3S(=O)(=O)C(C)C)n2)c(OC(C)C)cc1C1CCNCC1 [Ceritinib (LDK378)]	0%
CCCCCCCCCCCCCCCCOc1nc2ccc(C)cc2c(=O)o1 [Cetilistat]	8.35%

Compound	inhibition at 100 µM
O=C(O)COCCN1CCN(C(c2ccccc2)c2ccc(Cl)cc2)CC1 (stereo not drawn) [Cetirizine DiHCl]	1.2%
CCCCCCCCCCCCCCCC[N+](C)(C)C [Cetrimonium Bromide (CTAB)]	25.1%
C[C@H](CCC(=O)O)[C@H]1CC[C@H]2[C@@H]3[C@H](O)C[C@@H]4C[C@H](O)CC[C@]4(C)[C@H]3CC[C@]12C [Chenodeoxycholic Acid]	0%
O=C(N[C@H](CO)[C@H](O)c1ccc([N+](=O)[O-])cc1)C(Cl)Cl [Chloramphenicol]	0%
NC(=NCCCCCCN=C(N)/N=C(\N)Nc1ccc(Cl)cc1)/N=C(\N)Nc1ccc(Cl)cc1 [Chlorhexidine]	10%
CC(=O)O[C@]1(C(C)=O)CC[C@H]2[C@@H]3C=C(Cl)C4=CC(=O)CC[C@]4(C)[C@H]3CC[C@@]21C [Chlormadinone acetate]	0%
CN1C(=O)CCS(=O)(=O)C1c1ccc(Cl)cc1 (stereo not drawn) [Chlormezanone]	20.4%
Cc1cc(O)ccc1Cl [Chlorocresol]	24.2%
CCN(CC)CCOC(=O)c1ccc(N)cc1Cl [Chloroprocaine HCl]	0%
NS(=O)(=O)c1cc2c(cc1Cl)N=CNS2(=O)=O [Chlorothiazide]	0%
COc1ccc(C(Cl)=C(c2ccc(OC)cc2)c2ccc(OC)cc2)cc1 [Chlorotrianisene]	0%
Oc1c(Cl)cc(Cl)c2cccnc12 [Chloroxine]	10.2%
Cc1cc(O)cc(C)c1Cl [Chloroxylenol]	0%
CN(C)CCC(c1ccc(Cl)cc1)c1ccccn1 (stereo not drawn) [Chlorpheniramine Maleate]	6.37%
CN(C)CCCN1c2ccccc2Sc2ccc(Cl)cc21 [Chlorpromazine HCl]	0%
CCCNC(=O)NS(=O)(=O)c1ccc(Cl)cc1 [Chlorpropamide]	0%
Cc1ccc2c(Cl)cc(Cl)c(O)c2n1 [Chlorquinaldol]	1.48%
CN(C)[C@@H]1C(O)=C(C(N)=O)C(=O)[C@@]2(O)C(O)=C3C(=O)c4c(O)ccc(Cl)c4[C@@](C)(O)[C@H]3C[C@@H]12 [Chlortetracycline HCl]	1.82%
NS(=O)(=O)c1cc(C2(O)NC(=O)c3ccccc32)ccc1Cl (stereo not drawn) [Chlorthalidone]	1.46%
C[C@H](CCC(=O)O)[C@H]1CC[C@H]2[C@@H]3[C@H](O)C[C@@H]4C[C@H](O)CC[C@]4(C)[C@H]3C[C@H](O)[C@]12C [Cholic acid]	0%

Compound	inhibition at 100 µM
C[N+](C)(C)CCO [Choline Chloride]	0%
O=C(O)C(O)C(O)C(=O)O (stereo not drawn) [Choline bitartrate]	0%
O=C(O)c1cc(=O)c2ccccc2o1 [Chromocarb]	21.6%
CC(C)C(=O)OCC(=O)[C@@]12O[C@H](C3CCCCC3)O[C@@H]1C[C@H]1[C@@H]3CCC4=CC(=O)C=C[C@]4(C)[C@H]3[C@@H](O)C[C@@]12C [Ciclesonide]	0%
Cc1cc(C2CCCCC2)n(O)c(=O)c1 [Ciclopirox]	22.9%
Nc1ccn(C[C@@H](CO)OCP(=O)(O)O)c(=O)n1 [Cidofovir]	0%
CC1(C)C[C@@H]1C(=O)N/C(=C\CCCCSC[C@H](N)C(=O)O)C(=O)O [Cilastatin]	0%
CC(C)[C@H]1C(=O)N[C@@H](CCCN=C(N)N)C(=O)NCC(=O)N[C@@H](CC(=O)O)C(=O)N[C@H](Cc2ccccc2)C(=O)N1C [Cilengitide?trifluoroacetate]	10.8%
COCCOC(=O)C1=C(C)NC(C)=C(C(=O)OC/C=C/c2ccccc2)C1c1cccc([N+](=O)[O-])c1 (stereo not drawn) [Cilnidipine]	0%
COc1ccc([C@]2(C#N)CC[C@@H](C(=O)O)CC2)cc1OC1CCCC1 [Cilomilast]	1.61%
O=C1CCc2cc(OCCCCc3nnnn3C3CCCCC3)ccc2N1 [Cilostazol]	7.33%
CN/C(=N\CCSCc1nc[nH]c1C)NC#N [Cimetidine]	20.9%
C[C@@H](NCCCc1cccc(C(F)(F)F)c1)c1cccc2ccccc12 [Cinacalcet HCl]	4.38%
CCCCOc1cc(C(=O)NCCN(CC)CC)c2ccccc2n1 [Cinchocaine]	0%
O=C(O)c1cc(-c2ccccc2)nc2ccccc12 [Cinchophen]	17.7%
COc1cc(/C=C/C(=O)N2CCN(CC(=O)N3CCCC3)CC2)cc(OC)c1OC [Cinepazide maleate]	24.7%
CCn1nc(C(=O)O)c(=O)c2cc3c(cc21)OCO3 [Cinoxacin]	0.626%
CC(C)(Oc1ccc(C2CC2(Cl)Cl)cc1)C(=O)O (stereo not drawn) [Ciprofibrate]	20.7%
COc1cc(N)c(Cl)cc1C(=O)N[C@H]1CCN(CCCOc2ccc(F)cc2)C[C@H]1OC [Cisapride hydrate]	0%
COc1cc(N)c(Cl)cc1C(=O)N[C@@H]1CCN(CCCOc2ccc(F)cc2)C[C@@H]1OC [Cisapride]	1.02%
